# Numbered stars: 1 amine (or outer) side, 2 acyl side, 3 side chain; on linkers, the order of the positions; unused ones are H or OH. Bridge positions count the residues as written; N and C are the ends. Square brackets hold non-standard residues; d marks the D form. Side chains are listed from the residue outwards. Peptide text beside a SMILES is read from it. * marks the point of attachment. DOTA(Lu) = O=C1CN2CCN3CCN(CC(=O)*)CCN(CC2)CC(=O)[O][Lu]([O]1)[O]C(=O)C3; NH(1-deoxy-D-glucityl) = OC[C@@H](O)[C@@H](O)[C@H](O)[C@@H](O)CN*; X4 = CC(C)(C)C[C@H](CNCCCC[C@H](N[*:1])C(=O)[*:2])N[*:3]; DOTA = O=C(O)CN1CCN(CC(=O)O)CCN(CC(=O)*)CCN(CC(=O)O)CC1; Trp(1-Me,7-Cl) = Cn1cc(C[C@H](N)C(=O)O)c2cccc(Cl)c21; dPhe(3-CONH2) = NC(=O)c1cccc(C[C@@H](N)C(=O)O)c1; Piperazinyl(4-CH2COOH) = O=C(O)CN1CCN(*)CC1; Trp(1-Me) = Cn1cc(C[C@H](N)C(=O)O)c2ccccc21; PEG8 = NCCOCCOCCOCCOCCOCCOCCOCCOCCC(=O)O; NMemTyr = CN[C@@H](Cc1cccc(O)c1)C(=O)O; d(tBuAla) = CC(C)(C)C[C@@H](N)C(=O)O; NMe3Pal = CN[C@@H](Cc1cccnc1)C(=O)O; hCit = NC(=O)NCCCC[C@H](N)C(=O)O; Gly(cBu) = N[C@H](C(=O)O)C1CCC1; NMeE = CN[C@@H](CCC(=O)O)C(=O)O; Aad = N[C@@H](CCCC(=O)O)C(=O)O; NMeN = CN[C@@H](CC(N)=O)C(=O)O; PEG2 = NCCOCCOCCC(=O)O; CO = O=C([*:1])[*:2]; βAla = NCCC(=O)O
# Target: T1, Recombinant Human EphA2 Fc Protein (Homo sapiens, UniProt P29317)
# T1 construct: purchased Elabscience
# Assay: Interaction analysis (kinetics, KD) of peptides and conjugates against EphA2 by SPR, Biacore T200, single-cycle kinetics (Examples B15 and B22)
# Format: binding
# Conditions: not given
# How it was run: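 Biacore T200 SPR with Fc-tagged human EphA2 captured via anti-human antibody; running buffer HBS-P+ pH 7.4 with 1% DMSO, 25 °C. Five serial dilutions of peptide or conjugate run by single-cycle kinetics; KD from ka and kd after baseline subtraction.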
# T1 sequence (P29317 24-534 limits assumed): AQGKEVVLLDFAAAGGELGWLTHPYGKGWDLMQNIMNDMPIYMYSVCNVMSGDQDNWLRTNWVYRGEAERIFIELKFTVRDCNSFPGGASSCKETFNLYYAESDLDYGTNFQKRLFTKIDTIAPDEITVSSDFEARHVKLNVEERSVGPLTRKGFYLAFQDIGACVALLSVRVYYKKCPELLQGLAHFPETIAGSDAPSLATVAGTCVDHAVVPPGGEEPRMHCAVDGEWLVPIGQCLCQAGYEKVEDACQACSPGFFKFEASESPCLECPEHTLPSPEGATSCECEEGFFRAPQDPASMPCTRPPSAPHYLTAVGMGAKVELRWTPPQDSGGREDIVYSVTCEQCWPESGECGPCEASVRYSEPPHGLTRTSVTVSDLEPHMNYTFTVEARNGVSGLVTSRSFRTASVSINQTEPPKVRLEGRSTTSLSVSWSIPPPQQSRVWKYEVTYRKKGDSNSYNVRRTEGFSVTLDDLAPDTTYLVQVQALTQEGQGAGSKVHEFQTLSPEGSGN
row,SMILES,Kd
1,"CC(C)C[C@@H]1NC(=O)[C@H](CC(N)=O)NC(=O)[C@H](Cc2cccnc2)N(C)C(=O)[C@@H](Cc2cccc(C(N)=O)c2)NC(=O)CSC[C@@H](C(=O)N[C@@H](CCCCNC(=O)CN2CCN3CCN4CCN(CC2)CC(=O)[O][Lu]([O]C(=O)C3)[O]C(=O)C4)C(N)=O)NC(=O)[C@H](Cc2cn(C)c3ccccc23)NC(=O)[C@H](CCCCNC(N)=O)NC(=O)[C@H](Cc2cn(C)c3c(Cl)cccc23)NC(=O)[C@H](Cc2cccnc2)N(C)C(=O)[C@H](CO)NC1=O [PDC_EphA2-00026601-C301] ({CH2CO}-[dPhe(3-CONH2)][NMe3Pal]NLS[NMe3Pal][Trp(1-Me,7-Cl)][hCit][Trp(1-Me)]CK(DOTA(Lu))-NH2; thioether N-10)",< 1 nM
2,"C[C@@H](O)[C@@H]1NC(=O)[C@H](Cc2cn(C)c3ccccc23)NC(=O)[C@H](CCCCNC(=O)N2CCN(CC(=O)O)CC2)NC(=O)[C@H](Cc2cn(C)c3c(Cl)cccc23)NC(=O)[C@H](CCC(=O)O)N(C)C(=O)[C@H](CCCC(N)=O)NC(=O)[C@H](C2CCC2)NC(=O)[C@H](CC(N)=O)NC(=O)[C@H](Cc2cccc(O)c2)N(C)C(=O)[C@@H](Cc2cccc(C(N)=O)c2)NC(=O)CSC[C@@H](C(=O)N[C@H](CCCCNC(=O)CN2CCN3CCN4CCN(CC2)CC(=O)[O][Lu]([O]C(=O)C3)[O]C(=O)C4)C(=O)O)NC(=O)[C@H](CCCC(N)=O)NC1=O [PDC_EphA2-00026775] ({CH2CO}-[dPhe(3-CONH2)][NMemTyr]N[Gly(cBu)][Aad](NH2)[NMeE][Trp(1-Me,7-Cl)]K([CO-Piperazinyl(4-CH2COOH)])[Trp(1-Me)]T[Aad](NH2)C[dK](DOTA(Lu))-OH; thioether N-12)",< 1 nM
3,"C[C@H]1NC(=O)CSC[C@@H](C(=O)N[C@H](CCC(=O)O)C(N)=O)NC(=O)[C@H](CCCC(N)=O)NC(=O)[C@H]([C@@H](C)O)NC(=O)[C@H](Cc2cn(C)c3ccccc23)NC(=O)[C@H](CCCCNC(=O)N2CCN(CC(=O)O)CC2)NC(=O)[C@H](Cc2cn(C)c3c(Cl)cccc23)NC(=O)[C@H](CCC(=O)O)N(C)C(=O)[C@H](CCCCNC(=O)[C@@H](CC(C)(C)C)NC(=O)CN2CCN3CCN4CCN(CC2)CC(=O)[O][Lu]([O]C(=O)C3)[O]C(=O)C4)NC(=O)[C@H](C2CCC2)NC(=O)[C@H](CC(N)=O)NC(=O)[C@H](Cc2cccnc2)N(C)C1=O [PDC_EphA2-00027130] ({CH2CO}-[dA][NMe3Pal]N[Gly(cBu)]K([d(tBuAla)-DOTA(Lu)])[NMeE][Trp(1-Me,7-Cl)]K([CO-Piperazinyl(4-CH2COOH)])[Trp(1-Me)]T[Aad](NH2)C[dE]-NH2; thioether N-12)",< 1 nM
4,"C[C@@H](O)[C@@H]1NC(=O)[C@H](Cc2cn(C)c3ccccc23)NC(=O)[C@H](CCC(=O)NC[C@H](O)[C@@H](O)[C@H](O)[C@H](O)CO)NC(=O)[C@H](Cc2cn(C)c3c(Cl)cccc23)NC(=O)[C@H](CC(N)=O)N(C)C(=O)[C@H](CCC(=O)NC[C@H](O)[C@@H](O)[C@H](O)[C@H](O)CO)NC(=O)[C@H](C2CCC2)NC(=O)[C@H](CC(N)=O)NC(=O)[C@H](Cc2cccnc2)N(C)C(=O)[C@@H](Cc2cccc(C(N)=O)c2)NC(=O)CSC[C@@H](C(=O)N[C@H](CCCCNC(=O)CN2CCN3CCN4CCN(CC2)CC(=O)[O][Lu]([O]C(=O)C3)[O]C(=O)C4)C(N)=O)NC(=O)[C@H](CCCC(N)=O)NC1=O [PDC_EphA2-00022594-C302] ({CH2CO}-[dPhe(3-CONH2)][NMe3Pal]N[Gly(cBu)]E(NH(1-deoxy-D-glucityl))[NMeN][Trp(1-Me,7-Cl)]E(NH(1-deoxy-D-glucityl))[Trp(1-Me)]T[Aad](NH2)C[dK](DOTA(Lu))-NH2; thioether N-12)",< 1 nM
5,"CC(C)C[C@@H]1NC(=O)[C@H](CC(N)=O)NC(=O)[C@H](Cc2cccnc2)N(C)C(=O)[C@@H](C)NC(=O)CSC[C@@H](C(N)=O)NC(=O)[C@H](CCCC(N)=O)NC(=O)[C@H]([C@@H](C)O)NC(=O)[C@H](Cc2cn(C)c3ccccc23)NC(=O)[C@H](CCCCNC(=O)CN2CCN3CCN4CCN(CC2)CC(=O)[O][Lu]([O]C(=O)C3)[O]C(=O)C4)NC(=O)[C@H](Cc2cn(C)c3c(Cl)cccc23)NC(=O)[C@H](CCC(=O)O)N(C)C(=O)[C@H](CCCC(N)=O)NC1=O [PDC_EphA2-00026632] ({CH2CO}-[dA][NMe3Pal]NL[Aad](NH2)[NMeE][Trp(1-Me,7-Cl)]K(DOTA(Lu))[Trp(1-Me)]T[Aad](NH2)C-NH2; thioether N-12)",< 1 nM
6,C[C@H]1NC(=O)CSC[C@@H](C(N)=O)NC(=O)[C@H](CCCCNC[C@@H](CC(C)(C)C)NC(=O)CN2CCN3CCN4CCN(CC2)CC(=O)[O][Lu]([O]C(=O)C3)[O]C(=O)C4)NC(=O)[C@H]([C@@H](C)O)NC(=O)[C@H](Cc2cn(C)c3ccccc23)NC(=O)[C@H](CCCCNC(=O)N2CCN(CC(=O)O)CC2)NC(=O)[C@H](Cc2cn(C)c3ccccc23)NC(=O)[C@H](CCC(=O)O)N(C)C(=O)[C@H](CCCC(N)=O)NC(=O)[C@H](C2CCC2)NC(=O)[C@H](CC(N)=O)NC(=O)[C@H](Cc2cccnc2)N(C)C1=O [PDC_EphA2-00027131] ({CH2CO}-[dA][NMe3Pal]N[Gly(cBu)][Aad](NH2)[NMeE][Trp(1-Me)]K([CO-Piperazinyl(4-CH2COOH)])[Trp(1-Me)]T[X4](DOTA(Lu))C-NH2; thioether N-12),< 1 nM
7,"CC(C)C[C@@H]1NC(=O)[C@H](CC(N)=O)NC(=O)[C@H](Cc2cccnc2)N(C)C(=O)[C@@H](Cc2cccc(C(N)=O)c2)NC(=O)CSC[C@@H](C(N)=O)NC(=O)[C@H](CCCC(N)=O)NC(=O)[C@H]([C@@H](C)O)NC(=O)[C@H](Cc2cn(C)c3ccccc23)NC(=O)[C@H](CCCCNC(=O)CN2CCN3CCN4CCN(CC2)CC(=O)[O][Lu]([O]C(=O)C3)[O]C(=O)C4)NC(=O)[C@H](Cc2cn(C)c3c(Cl)cccc23)NC(=O)[C@H](CCC(=O)O)N(C)C(=O)[C@H](CCCC(N)=O)NC1=O [PDC_EphA2-00026718] ({CH2CO}-[dPhe(3-CONH2)][NMe3Pal]NL[Aad](NH2)[NMeE][Trp(1-Me,7-Cl)]K(DOTA(Lu))[Trp(1-Me)]T[Aad](NH2)C-NH2; thioether N-12)",< 1 nM

# Same assay, conditions: conjugates, Biacore T200 according to Example B15, Table B16; read-out: SPR Kd
row,SMILES,Kd
1,"C[C@H]1NC(=O)CSC[C@@H](C(N)=O)NC(=O)[C@H](CCCCNC(=O)[C@@H](Cc2ccccc2)NC(=O)CN2CCN(CC(=O)O)CCN(CC(=O)O)CCN(CC(=O)O)CC2)NC(=O)[C@H]([C@@H](C)O)NC(=O)[C@H](Cc2cn(C)c3ccccc23)NC(=O)[C@H](CCCCNC(=O)N2CCN(CC(=O)O)CC2)NC(=O)[C@H](Cc2cn(C)c3c(Cl)cccc23)NC(=O)[C@H](CCC(=O)O)N(C)C(=O)[C@H](CCCC(N)=O)NC(=O)[C@H](C2CCC2)NC(=O)[C@H](CC(N)=O)NC(=O)[C@H](Cc2cccnc2)N(C)C1=O.[Lu+3] [PDC_EphA2-00027129] ({CH2CO}-[dA][NMe3Pal]N[Gly(cBu)][Aad](NH2)[NMeE][Trp(1-Me,7-Cl)]K([CO-Piperazinyl(4-CH2COOH)])[Trp(1-Me)]TK([dF-DOTA])C-NH2; thioether N-12)",< 1 nM
2,CC(C)C[C@@H]1NC(=O)[C@H](CC(N)=O)NC(=O)[C@H](Cc2cccnc2)N(C)C(=O)[C@@H](C)NC(=O)CSC[C@@H](C(=O)NCCC(=O)N[C@H](CCCCNC(=O)CCOCCOCCNC(=O)CCOCCOCCOCCOCCOCCOCCOCCOCCNC(=O)CN2CCN(CC(=O)O)CCN(CC(=O)O)CCN(CC(=O)O)CC2)C(N)=O)NC(=O)[C@H](CCCC(N)=O)NC(=O)[C@H]([C@@H](C)O)NC(=O)[C@H](Cc2cn(C)c3ccccc23)NC(=O)[C@H](CCCCNC(=O)N2CCN(CC(=O)O)CC2)NC(=O)[C@H](Cc2cn(C)c3ccccc23)NC(=O)[C@H](CCC(=O)O)N(C)C(=O)[C@H](CCCC(N)=O)NC1=O.[Lu+3] [PDC_EphA2-00007196-C304] ({CH2CO}-[dA][NMe3Pal]NL[Aad](NH2)[NMeE][Trp(1-Me)]K([CO-Piperazinyl(4-CH2COOH)])[Trp(1-Me)]T[Aad](NH2)C[βAla][dK]([PEG2-PEG8-DOTA])-NH2; thioether N-12),< 1 nM
3,"CN1C(=O)[C@H](CCC(=O)NC[C@H](O)[C@@H](O)[C@H](O)[C@H](O)CO)NC(=O)[C@H](C2CCC2)NC(=O)[C@H](CC(N)=O)NC(=O)[C@H](Cc2cccnc2)N(C)C(=O)[C@@H](Cc2cccc(C(N)=O)c2)NC(=O)CSC[C@@H](C(=O)N[C@@H](CCCCNC(=O)CN2CCN(CC(=O)O)CCN(CC(=O)O)CCN(CC(=O)O)CC2)C(N)=O)NC(=O)[C@H](Cc2cn(C)c3ccccc23)NC(=O)[C@H](CCCCNC(=O)N2CCN(CC(=O)O)CC2)NC(=O)[C@H](Cc2cn(C)c3c(Cl)cccc23)NC(=O)[C@@H]1Cc1cccnc1.[Lu+3] [PDC_EphA2-00026603-C301] ({CH2CO}-[dPhe(3-CONH2)][NMe3Pal]N[Gly(cBu)]E(NH(1-deoxy-D-glucityl))[NMe3Pal][Trp(1-Me,7-Cl)]K([CO-Piperazinyl(4-CH2COOH)])[Trp(1-Me)]CK(DOTA)-NH2; thioether N-10)",< 1 nM

# Same assay, conditions: peptides, Biacore T200, 25 °C, Table B12; read-out: SPR Kd
row,Kd,SMILES
1,< 1 nM,"C[C@@H](O)[C@@H]1NC(=O)[C@H](Cc2cn(C)c3ccccc23)NC(=O)[C@H](CCCCNC(=O)N2CCN(CC(=O)O)CC2)NC(=O)[C@H](Cc2cn(C)c3c(Cl)cccc23)NC(=O)[C@H](Cc2cccnc2)N(C)C(=O)[C@H](CCCC(N)=O)NC(=O)[C@H](C2CCC2)NC(=O)[C@H](CC(N)=O)NC(=O)[C@H](Cc2cccnc2)N(C)C(=O)[C@@H](Cc2cccc(C(N)=O)c2)NC(=O)CSC[C@@H](C(N)=O)NC(=O)[C@H](CCCC(N)=O)NC1=O [PDC_EphA2-00019438] ({CH2CO}-[dPhe(3-CONH2)][NMe3Pal]N[Gly(cBu)][Aad](NH2)[NMe3Pal][Trp(1-Me,7-Cl)]K([CO-Piperazinyl(4-CH2COOH)])[Trp(1-Me)]T[Aad](NH2)C-NH2; thioether N-12)"
